In PubChem BioAssay AID1745844 (Carcinogenic Potency Database (CPDB), 2022):
Active and inactive are the calls of the source. How the calls were made is not given here.

Tested on: rodent lifetime carcinogenesis bioassay, tumor incidence TD50
Assay: chronic cancer bioassays in animals – CPDB, compiled studies (AID 1745844)

## O=NN1CCCCCCCCCCCC1
rat, strain NZR/Gd, females, by gavage, site: liver, lesion: hepatocellular tumor, dosed 52 weeks, study length 171 weeks
  TD50: 10.9 mg/kg/day
rat, strain NZR/Gd, females, by gavage, site: lung, lesion: several types, types named in the paper, dosed 52 weeks, study length 171 weeks
  TD50: 7.96 mg/kg/day
rat, strain NZR/Gd, males, by gavage, site: heart, lesion: one or several types, types not named, dosed 52 weeks, study length 150 weeks
  TD50: 2.15 mg/kg/day
rat, strain NZR/Gd, males, by gavage, site: liver, lesion: hepatocellular tumor, dosed 52 weeks, study length 150 weeks
  TD50: 16.8 mg/kg/day
rat, strain NZR/Gd, males, by gavage, site: lung, lesion: several types, types named in the paper, dosed 52 weeks, study length 150 weeks
  TD50: 14.6 mg/kg/day

## CCC[N+](=O)[O-]
rat, strain Long-Evans BLU:(LE), females, inhaled, site: liver, lesion: hepatocellular carcinoma, dosed 52 weeks, study length 52 weeks
  carcinogen call: negative (inactive)
rat, strain Long-Evans BLU:(LE), females, inhaled, site: liver, lesion: hepatocellular carcinoma, dosed 52 weeks, study length 93 weeks
  carcinogen call: negative (inactive)
rat, strain Long-Evans BLU:(LE), females, inhaled, site: liver, lesion: hepatocellular carcinoma, dosed 78 weeks, study length 78 weeks
  carcinogen call: negative (inactive)
rat, strain Long-Evans BLU:(LE), females, inhaled, site: liver, lesion: hepatocellular carcinoma, dosed 93 weeks, study length 93 weeks
  carcinogen call: negative (inactive)
rat, strain Long-Evans BLU:(LE), males, inhaled, site: liver, lesion: hepatocellular carcinoma, dosed 52 weeks, study length 52 weeks
  carcinogen call: negative (inactive)
rat, strain Long-Evans BLU:(LE), males, inhaled, site: liver, lesion: hepatocellular carcinoma, dosed 52 weeks, study length 93 weeks
  carcinogen call: negative (inactive)
rat, strain Long-Evans BLU:(LE), males, inhaled, site: liver, lesion: hepatocellular carcinoma, dosed 78 weeks, study length 78 weeks
  carcinogen call: negative (inactive)
rat, strain Long-Evans BLU:(LE), males, inhaled, site: liver, lesion: hepatocellular carcinoma, dosed 93 weeks, study length 93 weeks
  carcinogen call: negative (inactive)
rat, strain Sprague-Dawley, males, by gavage, site: liver, lesion: hepatocellular adenoma, dosed 26 weeks, study length 77 weeks
  TD50: 0.872 mg/kg/day (inactive)

## Cc1ccc(N=C=O)cc1N=C=O
mouse, strain B6C3F1, females, by gavage, site: abdominal cavity + liver + ovary + spleen + subcutaneous tissue, lesion: hemangiosarcoma + hemangioma, dosed 105 weeks, study length 107 weeks
  TD50: 580 mg/kg/day
mouse, strain B6C3F1, females, by gavage, site: abdominal cavity + liver + ovary + spleen + subcutaneous tissue, lesion: hemangiosarcoma + hepatocellular adenoma + hemangioma, dosed 105 weeks, study length 107 weeks
  TD50: 181 mg/kg/day
mouse, strain B6C3F1, females, by gavage, site: abdominal cavity + liver + ovary, lesion: hemangiosarcoma, dosed 105 weeks, study length 107 weeks
  TD50: 1200 mg/kg/day
mouse, strain B6C3F1, females, by gavage, site: any site (literature study), lesion: several types, types named in the paper, dosed 105 weeks, study length 107 weeks
  TD50: 305 mg/kg/day
mouse, strain B6C3F1, females, by gavage, site: liver, lesion: hepatocellular adenoma + hepatocellular carcinoma + neoplastic nodule, dosed 105 weeks, study length 107 weeks
  TD50: 215 mg/kg/day
mouse, strain B6C3F1, females, by gavage, site: liver, lesion: hepatocellular adenoma + hepatocellular carcinoma, dosed 105 weeks, study length 107 weeks
  TD50: 215 mg/kg/day
mouse, strain B6C3F1, females, by gavage, site: liver, lesion: hepatocellular adenoma, dosed 105 weeks, study length 107 weeks
  TD50: 250 mg/kg/day
mouse, strain B6C3F1, females, by gavage, site: lung, lesion: alveolar/bronchiolar adenoma + alveolar/bronchiolar carcinoma, dosed 105 weeks, study length 107 weeks
  TD50: 815 mg/kg/day
mouse, strain B6C3F1, males, by gavage, site: any site (literature study), lesion: several types, types named in the paper, dosed 105 weeks, study length 107 weeks
  TD50: 253 mg/kg/day (inactive)
mouse, strain B6C3F1, males, by gavage, site: lung, lesion: alveolar/bronchiolar adenoma + alveolar/bronchiolar carcinoma, dosed 105 weeks, study length 107 weeks
  TD50: 1920 mg/kg/day
mouse, strain Charles River CD1, females, inhaled, site: any site (literature study), lesion: benign tumor, dosed 104 weeks, study length 104 weeks
  carcinogen call: negative (inactive)
mouse, strain Charles River CD1, females, inhaled, site: any site (literature study), lesion: malignant tumor, dosed 104 weeks, study length 104 weeks
  carcinogen call: negative (inactive)
mouse, strain Charles River CD1, females, inhaled, site: any site (literature study), lesion: several types, types named in the paper, dosed 104 weeks, study length 104 weeks
  carcinogen call: negative (inactive)
mouse, strain Charles River CD1, females, inhaled, site: liver, lesion: hepatocellular adenoma, dosed 104 weeks, study length 104 weeks
  carcinogen call: negative (inactive)
mouse, strain Charles River CD1, females, inhaled, site: liver, lesion: hepatocellular carcinoma, dosed 104 weeks, study length 104 weeks
  carcinogen call: negative (inactive)
mouse, strain Charles River CD1, females, inhaled, site: lung, lesion: adenoma, dosed 104 weeks, study length 104 weeks
  carcinogen call: negative (inactive)
mouse, strain Charles River CD1, females, inhaled, site: lung, lesion: carcinoma, dosed 104 weeks, study length 104 weeks
  carcinogen call: negative (inactive)
mouse, strain Charles River CD1, males, inhaled, site: any site (literature study), lesion: benign tumor, dosed 104 weeks, study length 104 weeks
  carcinogen call: negative (inactive)
mouse, strain Charles River CD1, males, inhaled, site: any site (literature study), lesion: malignant tumor, dosed 104 weeks, study length 104 weeks
  carcinogen call: negative (inactive)
mouse, strain Charles River CD1, males, inhaled, site: any site (literature study), lesion: several types, types named in the paper, dosed 104 weeks, study length 104 weeks
  TD50: 1.63 mg/kg/day (inactive)
mouse, strain Charles River CD1, males, inhaled, site: liver, lesion: hepatocellular adenoma, dosed 104 weeks, study length 104 weeks
  carcinogen call: negative (inactive)
mouse, strain Charles River CD1, males, inhaled, site: liver, lesion: hepatocellular carcinoma, dosed 104 weeks, study length 104 weeks
  carcinogen call: negative (inactive)
mouse, strain Charles River CD1, males, inhaled, site: lung, lesion: adenoma, dosed 104 weeks, study length 104 weeks
  TD50: 0.3 mg/kg/day (inactive)
mouse, strain Charles River CD1, males, inhaled, site: lung, lesion: carcinoma, dosed 104 weeks, study length 104 weeks
  carcinogen call: negative (inactive)
rat, strain Charles River CD (Sprague-Dawley), females, inhaled, site: any site (literature study), lesion: benign tumor, dosed 108 weeks, study length 108 weeks
  carcinogen call: negative (inactive)
rat, strain Charles River CD (Sprague-Dawley), females, inhaled, site: any site (literature study), lesion: malignant tumor, dosed 108 weeks, study length 108 weeks
  TD50: 1.09 mg/kg/day (inactive)
rat, strain Charles River CD (Sprague-Dawley), females, inhaled, site: any site (literature study), lesion: several types, types named in the paper, dosed 108 weeks, study length 108 weeks
  carcinogen call: negative (inactive)
rat, strain Charles River CD (Sprague-Dawley), females, inhaled, site: liver, lesion: hepatocellular carcinoma, dosed 108 weeks, study length 108 weeks
  TD50: 8.24 mg/kg/day (inactive)
rat, strain Charles River CD (Sprague-Dawley), males, inhaled, site: any site (literature study), lesion: benign tumor, dosed 110 weeks, study length 110 weeks
  carcinogen call: negative (inactive)
rat, strain Charles River CD (Sprague-Dawley), males, inhaled, site: any site (literature study), lesion: malignant tumor, dosed 110 weeks, study length 110 weeks
  TD50: 6.18 mg/kg/day (inactive)
rat, strain Charles River CD (Sprague-Dawley), males, inhaled, site: any site (literature study), lesion: several types, types named in the paper, dosed 110 weeks, study length 110 weeks
  carcinogen call: negative (inactive)
rat, strain Charles River CD (Sprague-Dawley), males, inhaled, site: liver, lesion: hepatocellular carcinoma, dosed 110 weeks, study length 110 weeks
  carcinogen call: negative (inactive)
rat, strain Fischer 344, females, by gavage, site: adrenal gland, lesion: cortical adenoma, dosed 106 weeks, study length 108 weeks
  TD50: 174 mg/kg/day
rat, strain Fischer 344, females, by gavage, site: adrenal gland, lesion: pheochromocytoma, dosed 106 weeks, study length 108 weeks
  TD50: 143 mg/kg/day
rat, strain Fischer 344, females, by gavage, site: any site (literature study), lesion: several types, types named in the paper, dosed 106 weeks, study length 108 weeks
  TD50: 25.1 mg/kg/day
rat, strain Fischer 344, females, by gavage, site: clitoral gland, lesion: adenoma, NOS, dosed 106 weeks, study length 108 weeks
  TD50: 260 mg/kg/day
rat, strain Fischer 344, females, by gavage, site: liver + mammary gland + pancreatic islets + subcutaneous tissue, lesion: neoplastic nodule + fibroadenoma + islet-cell adenoma + fibrosarcoma + fibroma, dosed 106 weeks, study length 108 weeks
  TD50: 25.4 mg/kg/day
rat, strain Fischer 344, females, by gavage, site: liver, lesion: hepatocellular adenoma + hepatocellular carcinoma + neoplastic nodule, dosed 106 weeks, study length 108 weeks
  TD50: 92.2 mg/kg/day
rat, strain Fischer 344, females, by gavage, site: liver, lesion: neoplastic nodule, dosed 106 weeks, study length 108 weeks
  TD50: 92.2 mg/kg/day
rat, strain Fischer 344, females, by gavage, site: mammary gland, lesion: fibroadenoma, dosed 106 weeks, study length 108 weeks
  TD50: 33.4 mg/kg/day
rat, strain Fischer 344, females, by gavage, site: pancreatic islets, lesion: islet-cell adenoma + islet-cell carcinoma, dosed 106 weeks, study length 108 weeks
  TD50: 115 mg/kg/day
rat, strain Fischer 344, females, by gavage, site: pancreatic islets, lesion: islet-cell adenoma, dosed 106 weeks, study length 108 weeks
  TD50: 135 mg/kg/day
rat, strain Fischer 344, females, by gavage, site: pituitary gland, lesion: chromophobe adenoma + chromophobe carcinoma, dosed 106 weeks, study length 108 weeks
  TD50: 86.9 mg/kg/day
rat, strain Fischer 344, females, by gavage, site: pituitary gland, lesion: chromophobe adenoma, dosed 106 weeks, study length 108 weeks
  TD50: 77.3 mg/kg/day
rat, strain Fischer 344, females, by gavage, site: subcutaneous tissue, lesion: fibroma, dosed 106 weeks, study length 108 weeks
  TD50: 256 mg/kg/day
rat, strain Fischer 344, females, by gavage, site: subcutaneous tissue, lesion: fibrosarcoma + fibroma, dosed 106 weeks, study length 108 weeks
  TD50: 206 mg/kg/day
rat, strain Fischer 344, males, by gavage, site: any site (literature study), lesion: several types, types named in the paper, dosed 106 weeks, study length 108 weeks
  TD50: 18.4 mg/kg/day
rat, strain Fischer 344, males, by gavage, site: liver, lesion: hepatocellular adenoma + hepatocellular carcinoma + neoplastic nodule, dosed 106 weeks, study length 108 weeks
  TD50: 196 mg/kg/day
rat, strain Fischer 344, males, by gavage, site: pancreas + subcutaneous tissue, lesion: acinar-cell adenoma + fibrosarcoma + fibroma, dosed 106 weeks, study length 108 weeks
  TD50: 27.3 mg/kg/day
rat, strain Fischer 344, males, by gavage, site: pancreas, lesion: acinar-cell adenoma, dosed 106 weeks, study length 108 weeks
  TD50: 51.6 mg/kg/day
rat, strain Fischer 344, males, by gavage, site: pancreatic islets, lesion: islet-cell adenoma + islet-cell carcinoma, dosed 106 weeks, study length 108 weeks
  TD50: 201 mg/kg/day
rat, strain Fischer 344, males, by gavage, site: pituitary gland, lesion: chromophobe adenoma + chromophobe carcinoma, dosed 106 weeks, study length 108 weeks
  TD50: 83.7 mg/kg/day
rat, strain Fischer 344, males, by gavage, site: pituitary gland, lesion: chromophobe adenoma, dosed 106 weeks, study length 108 weeks
  TD50: 76.4 mg/kg/day
rat, strain Fischer 344, males, by gavage, site: subcutaneous tissue, lesion: fibroma, dosed 106 weeks, study length 108 weeks
  TD50: 56 mg/kg/day
rat, strain Fischer 344, males, by gavage, site: subcutaneous tissue, lesion: fibrosarcoma + fibroma, dosed 106 weeks, study length 108 weeks
  TD50: 34.1 mg/kg/day
rat, strain Fischer 344, males, by gavage, site: subcutaneous tissue, lesion: fibrosarcoma + osteosarcoma + sarcoma, NOS, dosed 106 weeks, study length 108 weeks
  TD50: 103 mg/kg/day
rat, strain Fischer 344, males, by gavage, site: subcutaneous tissue, lesion: fibrosarcoma, dosed 106 weeks, study length 108 weeks
  TD50: 92.4 mg/kg/day
rat, strain Fischer 344, males, by gavage, site: testis, lesion: interstitial-cell tumor + interstitial-cell tumor, malignant, dosed 106 weeks, study length 108 weeks
  TD50: 13.6 mg/kg/day

## CC(C)(C)c1cc([N+](=O)[O-])cc([N+](=O)[O-])c1OS(C)(=O)=O
rat, strain Sprague-Dawley, females, in feed, site: any site (literature study), lesion: several types, types named in the paper, dosed 52 weeks, study length 52 weeks
  TD50: 2.66 mg/kg/day
